Here are results for 27 compounds from US9802960B2 (MILLENNIUM PHARMACEUTICALS, INC., priority 2014, dated 2017).

One may read the inhibition as the relative decrease from the control value, in per cent.

The target in the test is Human VPS34 (Homo sapiens (Human), UniProt Q8NEB9). Description: Human VPS34 enzyme assay (Adapta TR-FRET). The format is biochemical. The following applies: compound concentration 1.11 μM; read-out: Percent Inhibition.
Human VPS34, sequence (Q8NEB9 whole entry): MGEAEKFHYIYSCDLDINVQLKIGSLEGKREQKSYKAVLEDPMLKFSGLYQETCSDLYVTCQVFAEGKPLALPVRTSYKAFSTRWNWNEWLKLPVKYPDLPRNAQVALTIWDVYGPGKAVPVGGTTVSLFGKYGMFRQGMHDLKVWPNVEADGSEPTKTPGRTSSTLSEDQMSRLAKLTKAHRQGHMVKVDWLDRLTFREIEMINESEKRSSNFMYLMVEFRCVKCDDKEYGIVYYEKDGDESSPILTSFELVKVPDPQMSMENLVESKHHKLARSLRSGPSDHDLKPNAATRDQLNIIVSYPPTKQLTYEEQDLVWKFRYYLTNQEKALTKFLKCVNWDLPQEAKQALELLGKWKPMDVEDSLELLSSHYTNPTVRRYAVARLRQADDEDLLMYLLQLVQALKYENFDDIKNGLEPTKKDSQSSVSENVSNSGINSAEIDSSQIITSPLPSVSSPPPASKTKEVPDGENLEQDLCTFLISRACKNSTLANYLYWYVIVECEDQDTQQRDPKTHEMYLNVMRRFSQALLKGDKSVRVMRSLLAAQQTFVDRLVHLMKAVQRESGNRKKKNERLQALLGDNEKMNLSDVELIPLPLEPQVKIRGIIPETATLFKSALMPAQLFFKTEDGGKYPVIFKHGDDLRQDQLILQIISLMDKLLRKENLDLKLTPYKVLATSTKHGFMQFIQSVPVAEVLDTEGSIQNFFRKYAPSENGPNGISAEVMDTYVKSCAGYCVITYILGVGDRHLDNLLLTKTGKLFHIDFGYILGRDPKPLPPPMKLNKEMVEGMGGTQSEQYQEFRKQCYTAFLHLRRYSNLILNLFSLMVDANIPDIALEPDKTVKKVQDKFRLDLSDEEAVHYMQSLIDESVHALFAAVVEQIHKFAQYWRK
Turning to `Cc1nccc(Nc2cc(-c3cnc(Cl)c(NC(=O)c4ccc(F)cc4F)c3C)ccn2)n1` [Compound I-295, N-{6-chloro-4-methyl-2′-[(2-methylpyrimidin-4-yl)amino]-3,4′-bipyridin-5-yl}-2,4-difluorobenzamide], the inhibition at 1.11 µM is 80%.

Regarding `CC(=O)Nc1cc(-c2cnc(C)c(NS(=O)(=O)c3ccc(Cl)cc3Cl)c2)ccn1` [Compound I-30, N-(5-{[(2,4-dichlorophenyl)sulfonyl]amino}-6-methyl-3,4′-bipyridin-2′-yl)acetamide], the inhibition at 1.11 µM was greater than 99%.

As to `Cc1nccc(Nc2cc(-c3cnc(Cl)c(C(=O)N4CCC4)c3)ccn2)n1` [Compound I-232, azetidin-1-yl{6-chloro-2′-[(2-methylpyrimidin-4-yl)amino]-3,4′-bipyridin-5-yl}methanone], the inhibition at 1.11 µM came out at 81%.

`COc1ncc(-c2ccnc(NC(C)=O)c2)cc1S(=O)(=O)Nc1ccccc1` [Compound I-39, N-[6-methoxy-5-(phenylsulfamoyl)-3,4′-bipyridin-2′-yl]acetamide]: the inhibition at 1.11 µM was greater than 99%.

`CC(=O)Nc1cc(-c2cnc(N(C)C)c(C(=O)Nc3ccc(F)cc3F)c2)ccn1` [Compound I-112, 2′-acetamido-N-(2,4-difluorophenyl)-6-(dimethylamino)-3,4′-bipyridine-5-carboxamide]: the inhibition at 1.11 µM was greater than 99%.

As to `CC(=O)Nc1cc(-c2cncc(N(CCO)S(=O)(=O)c3ccc(F)cc3F)c2)ccn1` [Compound I-384, N-(5-{[(2,4-difluorophenyl)sulfonyl](2-hydroxyethyl)amino}-3,4′-bipyridin-2′-yl)acetamide], the inhibition at 1.11 µM is 73%.

`CC(=O)Nc1cc(-c2cnc(C)c(C(=O)N(C)C)c2)ccn1` [Compound I-75, 2′-acetamido-N,N,6-trimethyl-3,4′-bipyridine-5-carboxamide]: the inhibition at 1.11 µM is greater than 99%.

On to `COc1ncc(-c2ccnc(NC(C)=O)c2)cc1N(C)C(=O)c1ccc(F)cc1F` [Compound I-331, N-(2′-acetamido-6-methoxy-3,4′-bipyridin-5-yl)-2,4-difluoro-N-methylbenzamide], for which the inhibition at 1.11 µM turned out to be 93%.

Take `CC(=O)Nc1cc(-c2cnc(N)c(C(=O)N3CCOCC3)c2)ccn1` [Compound I-152, N-[6-amino-5-(morpholin-4-ylcarbonyl)-3,4′-bipyridin-2′-yl]acetamide]: the inhibition at 1.11 µM is greater than 99%.

On to `CCN(C)S(=O)(=O)Nc1cc(-c2ccnc(NC(C)=O)c2)cnc1C` [Compound I-273, N-(5-{[ethyl(methyl)sulfamoyl]amino}-6-methyl-3,4′-bipyridin-2′-yl)acetamide], for which the inhibition at 1.11 µM is greater than 99%.

For the compound `CC(=O)Nc1cc(-c2cnc(N(C)C)c(C(=O)N(C)C)c2)ccn1` [Compound I-162, 2′-acetamido-6-(dimethylamino)-N,N-dimethyl-3,4′-bipyridine-5-carboxamide], the inhibition at 1.11 µM is greater than 99%.

For `CC(=O)Nc1cc(-c2cnc(N)c(S(=O)(=O)Cc3ccccc3C(F)(F)F)c2)ccn1` [Compound I-50, N-(6-amino-5-{[2-(trifluoromethyl)benzyl]sulfonyl}-3,4′-bipyridin-2′-yl)acetamide], the inhibition at 1.11 µM is greater than 99%.

With `CC(=O)Nc1cc(-c2cnc(N(C)C)c(NS(=O)(=O)c3ccc(F)cc3F)c2)ccn1` [Compound I-25, N-[5-{[(2,4-diflurophenyl)sulfonyl]amino}-6-(dimethylamino)-3,4′-bipyridin-2′-yl]acetamide], the inhibition at 1.11 µM was greater than 99%.

As to `Cc1ncc(-c2ccnc(Nc3ccnc(C4CC4)n3)c2)cc1NC(=O)N1CC(F)(F)C1` [Compound I-368, N-(2′-((2-cyclopropylpyrimidin-4-yl)amino)-6-methyl-[3,4′-bipyridin]-5-yl)-3,3-difluoroazetidine-1-carboxamide], the inhibition at 1.11 µM was 96%.

Take `Cc1nccc(Nc2cc(-c3cnc(C)c(NC(=O)c4ccc(F)cc4F)c3)ccn2)n1` [Compound I-249, 2,4-difluoro-N-{6-methyl-2′-[(2-methylpyrimidin-4-yl)amino]-3,4′-bipyridin-5-yl}benzamide]: the inhibition at 1.11 µM stood at 85%.

Consider `CC(=O)Nc1cc(-c2cnc(C)c(NS(=O)(=O)c3cccc(F)c3)c2)ccn1` [Compound I-155, N-(5-{[(3-fluorophenyl)sulfonyl]amino}-6-methyl-3,4′-bipyridin-2′-yl)acetamide], for which the inhibition at 1.11 µM was greater than 99%.

Take `Cc1ncc(-c2ccnc(NC(=O)C3CC3)c2)cc1NS(=O)(=O)N(C)C` [Compound I-311, N-{5-[(dimethylsulfamoyl)amino]-6-methyl-3,4′-bipyridin-2′-yl}cyclopropanecarboxamide]: the inhibition at 1.11 µM is greater than 99%.

For the compound `CC(=O)Nc1cc(-c2cnc(N)c(S(=O)(=O)Nc3ccc(Cl)cc3)c2)ccn1` [Compound I-207, N-{6-amino-5-[(4-chlorophenyl)sulfamoyl]-3,4′-bipyridin-2′-yl}acetamide], the inhibition at 1.11 µM is greater than 99%.

`CC(=O)Nc1cc(-c2cnc(N)c(S(=O)(=O)N(C(C)C)C(C)C)c2)ccn1` [Compound I-77, N-[6-amino-5-(diisopropylsulfamoyl)-3,4′-bipyridin-2′-yl]acetamide]: the inhibition at 1.11 µM is greater than 99%.

Consider `CC(=O)Nc1cc(-c2cnc(Cl)c(N3CCCNS3(=O)=O)c2)ccn1` [Compound I-448, N-[6-chloro-5-(1,1-dioxido-1,2,6-thiadiazinan-2-yl)-3,4′-bipyridin-2′-yl]acetamide], for which the inhibition at 1.11 µM was 87%.

Turning to `Cc1nccc(Nc2cc(-c3cnc4c(c3)C(=O)NCC4)ccn2)n1` [Compound I-406, 3-[2-[(2-methylpyrimidin-4-yl)amino]-4-pyridyl]-7,8-dihydro-6H-1,6-naphthyridin-5-one], the inhibition at 1.11 µM stood at 80%.

As to `CC(=O)Nc1cc(-c2cnc(C)c(NS(=O)(=O)c3ccc(OC(F)(F)F)cc3Cl)c2)ccn1` [Compound I-113, N-[5-({[2-chloro-4-(trifluoromethoxy)phenyl]sulfonyl}amino)-6-methyl-3,4′-bipyridin-2′-yl]acetamide], the inhibition at 1.11 µM was greater than 99%.

For the compound `CC(=O)Nc1cc(-c2cncc(C(C)=O)c2)ccn1` [Compound I-194, N-(5-acetyl-3,4′-bipyridin-2′-yl)acetamide], the inhibition at 1.11 µM amounted to 62%.

As to `CNc1ncc(-c2ccnc(NC(C)=O)c2)cc1C(=O)N(C)C12CC(C1)C2` [Compound I-449, 2′-acetamido-N-(bicyclo[1.1.1]pent-1-yl)-N-methyl-6-(methylamino)-3,4′-bipyridine-5-carboxamide], the inhibition at 1.11 µM is 94%.

In the case of `Cc1nccc(Nc2cc(-c3c[n+]([O-])c(Cl)c(NS(=O)(=O)c4ccc(F)cc4F)c3C)ccn2)n1` [Compound I-454, N-(2-chloro-4-methyl-5-{2-[(2-methylpyrimidin-4-yl)amino]pyridin-4-yl}-1-oxidopyridin-3-yl)-2,4-difluorobenzenesulfonamide], the inhibition at 1.11 µM was greater than 99%.

Regarding `CC(=O)Nc1cc(-c2cnc(Cl)c(NS(=O)(=O)c3cccc4ncccc34)c2C)ccn1` [Compound I-437, N-{6-chloro-4-methyl-5-[(quinolin-5-ylsulfonyl)amino]-3,4′-bipyridin-2′-yl}acetamide], the inhibition at 1.11 µM was greater than 99%.

`CC(=O)Nc1cc(-c2cnc(Cl)c(NS(=O)(=O)c3ccccc3F)c2C)ccn1` [Compound I-251, N-(6-chloro-5-{[(2-fluorophenyl)sulfonyl]amino}-4-methyl-3,4′-bipyridin-2′-yl)acetamide]: the inhibition at 1.11 µM turned out to be 97%.
